Where a SMILES comes first, the peptide text is derived from it. Bridges are numbered along the chain shown (N, C = ends). [ ]: non-standard residue; d: D form. The star is where a group is joined. Threoninol(2S,3R) = C[C@@H](O)[C@H](CO)N*
Experiments:
Cathepsin G = target: T1, Cathepsin G (Homo sapiens, UniProt P08311); assay type: tissue-based; conditions: neutrophil;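 also: inhibition of Cathepsin G enzyme activity, tested on an AMC-conjugated peptide substrate; in other assays of this panel Not Active means under 50% inhibition at 10 µM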
T1 sequence (P08311 whole entry): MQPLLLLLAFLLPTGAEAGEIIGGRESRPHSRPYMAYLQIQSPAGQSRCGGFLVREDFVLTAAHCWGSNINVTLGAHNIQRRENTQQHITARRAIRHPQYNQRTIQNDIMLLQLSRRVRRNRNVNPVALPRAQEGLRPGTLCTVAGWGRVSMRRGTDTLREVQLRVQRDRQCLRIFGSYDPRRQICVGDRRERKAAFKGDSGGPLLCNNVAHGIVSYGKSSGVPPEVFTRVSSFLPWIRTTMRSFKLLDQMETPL

[1] = DRUGMATRIX: Atrial Natriuretic Factor (ANF) radioligand binding (ligand: [125I] ANF (rat)); assay type: cell membranes, Cavia porcellus, Dunkin-Hartley, Adrenal gland, Membrane; conditions: Not Active = under 50% inhibition at 10 µM
[2] = target: T2, Alpha-2C adrenergic receptor (Homo sapiens, UniProt P18825); experiment: DRUGMATRIX: Adrenergic Alpha-2C radioligand binding (ligand: [3H] MK-912); assay type: cell membranes, Sf9, Membrane
T2 sequence (P18825 whole entry): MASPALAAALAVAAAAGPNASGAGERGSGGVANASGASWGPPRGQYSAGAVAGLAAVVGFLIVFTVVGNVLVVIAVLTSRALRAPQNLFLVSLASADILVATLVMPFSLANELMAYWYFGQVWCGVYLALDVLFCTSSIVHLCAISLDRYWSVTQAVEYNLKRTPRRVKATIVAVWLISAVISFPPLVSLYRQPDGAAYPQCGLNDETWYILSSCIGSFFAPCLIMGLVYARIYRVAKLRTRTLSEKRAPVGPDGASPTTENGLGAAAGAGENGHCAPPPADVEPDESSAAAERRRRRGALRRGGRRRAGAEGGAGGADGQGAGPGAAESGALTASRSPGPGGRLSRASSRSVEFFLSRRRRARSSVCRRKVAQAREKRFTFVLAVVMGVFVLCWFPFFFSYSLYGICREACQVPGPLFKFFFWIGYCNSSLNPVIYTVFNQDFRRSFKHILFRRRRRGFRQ

[3] = target: 5-hydroxytryptamine receptor 6 (Homo sapiens, UniProt P50406); assay type: cell membranes, HeLa, Membrane; conditions: hela; also: in other assays of this panel Not Active means under 50% inhibition at 10 µM
[4] = target: Protein phosphatase 3 catalytic subunit alpha (Homo sapiens, UniProt Q08209); set-up: species or system Escherichia coli;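 also: inhibition of calcineurin (PP2B) enzyme activity, measured with DiFMUP as the substrate; in other assays of this panel Not Active means under 50% inhibition at 10 µM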
[5] = target: Kappa-type opioid receptor (Homo sapiens, UniProt P41145); experiment: DRUGMATRIX: Opiate kappa (OP2, KOP) radioligand binding (ligand: [3H] Diprenorphine); assay type: cell membranes, HEK293, Membrane; conditions: hek293; Not Active = under 50% inhibition at 10 µM
[6] = target: T3, Cysteinyl leukotriene receptor 1 (Homo sapiens, UniProt Q9Y271); assay type: cell membranes, CHO-K1, Membrane; conditions: cho-k1; also: in other assays of this panel Not Active means under 50% inhibition at 10 µM
T3 sequence (Q9Y271 whole entry): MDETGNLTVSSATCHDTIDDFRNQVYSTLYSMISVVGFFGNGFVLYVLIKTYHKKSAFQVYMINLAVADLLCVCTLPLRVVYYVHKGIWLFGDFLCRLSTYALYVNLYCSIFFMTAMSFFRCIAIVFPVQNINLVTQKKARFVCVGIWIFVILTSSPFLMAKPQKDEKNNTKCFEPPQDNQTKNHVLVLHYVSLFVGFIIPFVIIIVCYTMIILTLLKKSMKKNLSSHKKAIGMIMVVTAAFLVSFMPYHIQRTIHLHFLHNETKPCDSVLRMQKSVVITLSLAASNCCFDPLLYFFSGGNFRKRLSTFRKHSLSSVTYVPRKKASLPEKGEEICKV

[7] = DRUGMATRIX: Platelet-Derived Growth Factor (PDGF) radioligand binding (ligand: [125I] PDGF); assay type: cell-based; conditions: nih3t3; Not Active = under 50% inhibition at 10 µM

Chain of Kappa-type opioid receptor (P41145 whole entry): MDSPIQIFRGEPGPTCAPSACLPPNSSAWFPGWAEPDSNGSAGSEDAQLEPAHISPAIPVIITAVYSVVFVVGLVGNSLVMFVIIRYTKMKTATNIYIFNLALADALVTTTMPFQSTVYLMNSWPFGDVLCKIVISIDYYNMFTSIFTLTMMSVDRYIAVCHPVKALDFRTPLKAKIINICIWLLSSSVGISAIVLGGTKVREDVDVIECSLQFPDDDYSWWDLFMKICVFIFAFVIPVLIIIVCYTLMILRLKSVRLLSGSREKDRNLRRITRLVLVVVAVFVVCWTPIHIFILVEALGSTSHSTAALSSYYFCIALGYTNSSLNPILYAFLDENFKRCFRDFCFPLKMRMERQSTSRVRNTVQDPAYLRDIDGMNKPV
Chain of 5-hydroxytryptamine receptor 6 (P50406 whole entry): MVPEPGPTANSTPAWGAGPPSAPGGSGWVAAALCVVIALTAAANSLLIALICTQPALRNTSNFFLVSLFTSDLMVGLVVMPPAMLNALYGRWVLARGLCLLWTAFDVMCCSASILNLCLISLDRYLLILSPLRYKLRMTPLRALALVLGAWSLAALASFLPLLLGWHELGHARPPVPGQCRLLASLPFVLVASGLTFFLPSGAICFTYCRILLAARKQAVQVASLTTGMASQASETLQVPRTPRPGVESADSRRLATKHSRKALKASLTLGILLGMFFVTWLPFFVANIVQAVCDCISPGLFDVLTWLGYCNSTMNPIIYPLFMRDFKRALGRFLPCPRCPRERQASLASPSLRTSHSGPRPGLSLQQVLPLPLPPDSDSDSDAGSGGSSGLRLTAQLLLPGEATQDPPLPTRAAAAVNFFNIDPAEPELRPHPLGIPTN

Row | Compound | IC50 (Cathepsin G) | IC50 [1] | Ki [1] | IC50 ([2]; sf9) | IC50 [3] | IC50 [4] | IC50 [5] | IC50 [6] | IC50 [7] | Ki [7] | IC50 ([2]; read-out: IC50) | Ki ([2]; read-out: Ki) | Ki (Cathepsin G) | Ki ([2]; sf9) | Ki [3] | Ki [4] | Ki [5] | Ki [6]
1 | COc1ccccc1C(=O)N1CCC(Cc2ccccc2)CC1 | Not Active | Not Active | Not Active | Not Active | Not Active | Not Active | Not Active | Not Active | Not Active | Not Active |  |  |  |  |  |  |  | 
2 | Cc1ccccc1C(=O)N1CCC(Cc2ccccc2)CC1 | Not Active | Not Active | Not Active | Not Active | Not Active | Not Active | Not Active | Not Active | Not Active | Not Active |  |  |  |  |  |  |  | 
3 | O=C1CC[C@H](N2C(=O)c3ccccc3C2=O)C(=O)N1 | Not Active | Not Active | Not Active | Not Active | Not Active | Not Active | Not Active | Not Active | Not Active | Not Active |  |  |  |  |  |  |  | 
4 | N=C(Nc1ccccc1)Nc1ccccc1 | Not Active | Not Active | Not Active | Not Active | Not Active | Not Active | Not Active | Not Active | Not Active | Not Active |  |  |  |  |  |  |  | 
5 | C[C@@H](O)[C@H](CO)NC(=O)[C@@H]1CSSC[C@H](NC(=O)[C@H](N)Cc2ccccc2)C(=O)N[C@@H](Cc2ccccc2)C(=O)N[C@H](Cc2c[nH]c3ccccc23)C(=O)N[C@@H](CCCCN)C(=O)N[C@@H]([C@@H](C)O)C(=O)N1 (H-[dF]CF[dW]KTC-{Threoninol(2S,3R)}; disulfide 2-7) | Not Active | Not Active | Not Active | Not Active | Not Active | Not Active | Not Active | Not Active | Not Active | Not Active |  |  |  |  |  |  |  | 
6 | S=C=Nc1cccc2ccccc12 [1-NAPHTHYLISOTHIOCYANATE] | Not Active | Not Active | Not Active |  | Not Active | Not Active |  | Not Active | Not Active | Not Active | 54.5 µM | 7.92 µM |  |  |  |  |  | 
7 | C[C@](O)(CS(=O)(=O)c1ccc(F)cc1)C(=O)Nc1ccc(C#N)c(C(F)(F)F)c1 [(R)-BICALUTAMIDE] | Not Active | Not Active | Not Active | Not Active | Not Active | Not Active | Not Active | Not Active | Not Active | Not Active |  |  |  |  |  |  |  | 
8 | CCCC(=O)Nc1ccc(OCC(O)CNC(C)C)c(C(C)=O)c1 (stereo not given) [ACEBUTOLOL] | Not Active | Not Active | Not Active | Not Active | Not Active | Not Active | Not Active | Not Active | Not Active | Not Active |  |  |  |  |  |  |  | 
9 | CC(=O)Nc1ccc(O)cc1 [ACETAMINOPHEN] | Not Active | Not Active | Not Active | Not Active | Not Active | Not Active |  | Not Active | Not Active | Not Active |  |  |  |  |  |  |  | 
10 | COc1cc2c(c3oc(=O)c4c(c13)CCC4=O)[C@@H]1C=CO[C@@H]1O2 [AFLATOXIN] | Not Active | Not Active | Not Active | Not Active | Not Active | Not Active | Not Active | Not Active | Not Active | Not Active |  |  | Not Active | Not Active | Not Active | Not Active | Not Active | Not Active
11 | N=C(N)NC(=O)c1nc(Cl)c(N)nc1N [AMILORIDE] | Not Active | Not Active | Not Active | Not Active | Not Active | Not Active | Not Active | Not Active | Not Active | Not Active |  |  |  |  |  |  |  | 
12 | Cc1cc(=O)n(-c2ccccc2)n1C [ANTIPYRINE] | Not Active | Not Active | Not Active | Not Active | Not Active | Not Active | Not Active | Not Active | Not Active | Not Active |  |  |  |  |  |  |  | 
13 | CN1C(=O)COc2c(C(=O)NC3CN4CCC3CC4)cc(Cl)cc21 (stereo not given) [AZASETRON] | Not Active | Not Active | Not Active | Not Active | Not Active | Not Active | Not Active | Not Active | Not Active | Not Active |  |  |  |  |  |  |  | 
14 | C[C@H]1C[C@H]2[C@@H]3CCC4=CC(=O)C=C[C@]4(C)[C@@]3(Cl)[C@@H](O)C[C@]2(C)[C@@]1(O)C(=O)CO [BECLOMETHASONE] | Not Active | Not Active | Not Active | Not Active | Not Active | Not Active | Not Active | Not Active | Not Active | Not Active |  |  |  |  |  |  |  | 
15 | CCOC(=O)[C@H](CCc1ccccc1)N[C@H]1CCc2ccccc2N(CC(=O)O)C1=O [BENAZEPRIL] | Not Active | Not Active | Not Active | Not Active | Not Active | Not Active | Not Active | Not Active | Not Active | Not Active |  |  |  |  |  |  |  | 
16 | Nc1c(CC(=O)O)cccc1C(=O)c1ccc(Br)cc1 [BROMFENAC] | Not Active | Not Active | Not Active | Not Active | Not Active | Not Active | Not Active | Not Active | Not Active | Not Active |  |  |  |  |  |  |  | 
17 | CCCCN1CCCCC1C(=O)Nc1c(C)cccc1C.Cl (stereo not given) [BUPIVACAINE HYDROCHLORIDE] | Not Active | Not Active | Not Active | Not Active | Not Active | Not Active | Not Active | Not Active | Not Active | Not Active |  |  |  |  |  |  |  | 
18 | C[C@@]12C(=O)OC(=O)[C@]1(C)[C@H]1CC[C@@H]2O1 [CANTHARIDIN] | Not Active | Not Active | Not Active | Not Active | Not Active | Not Active |  | Not Active | Not Active | Not Active |  |  |  |  |  |  |  | 
19 | C[C@@H]1C[C@@H]([C@H](O)CC2CC(=O)NC(=O)C2)C(=O)[C@@H](C)C1 [CYCLOHEXIMIDE] | Not Active | Not Active | Not Active | Not Active | Not Active | Not Active |  | Not Active | Not Active | Not Active |  |  |  |  |  |  |  | 
20 | C/C=C/C[C@@H](C)[C@@H](O)[C@H]1C(=O)N[C@@H](CC)C(=O)N(C)CC(=O)N(C)[C@@H](CC(C)C)C(=O)N[C@@H](C(C)C)C(=O)N(C)[C@@H](CC(C)C)C(=O)N[C@@H](C)C(=O)N[C@H](C)C(=O)N(C)[C@@H](CC(C)C)C(=O)N(C)[C@@H](CC(C)C)C(=O)N(C)[C@@H](C(C)C)C(=O)N1C [CYCLOSPORINE] | Not Active | Not Active | Not Active | Not Active | Not Active |  | Not Active | Not Active | Not Active | Not Active |  |  |  |  |  |  |  | 
21 | COP(=O)(OC)OC=C(Cl)Cl [DICHLORVOS] | Not Active | Not Active | Not Active | Not Active | Not Active | Not Active |  | Not Active | Not Active | Not Active |  |  |  |  |  |  |  | 
22 | CADMIUM DICHLORIDE | Not Active | Not Active | Not Active | Not Active | Not Active | Not Active |  | Not Active | Not Active | Not Active |  |  | Not Active | Not Active | Not Active | Not Active |  | Not Active

From ChEMBL document CHEMBL1909046, “DrugMatrix in vitro pharmacology data”
